Measured values: patent publication US20240261296A1, “THERAPEUTIC MODALITIES FOR INHIBITING PANCREATIC BETA CELL IMPAIRMENT AND TREATING DIABETES” (Hadasit Medical Research Serices & Development Ltd., priority 2021, published 2024)
“Also recorded” adds a separate entry of the source.

Columns and labels:
Format in all cases: in vivo
[1] = test system: db/db mice; experiment: intraperitoneal glucose tolerance test (IPGTT)
Method: Lepr^db/db homozygotes (db/db) and heterozygote Lepr^db/+ (wild type) mice were treated daily with 2.5 mg/kg/day oral administration of the Vehicle, the commercial EP3 antagonist L-798106 and the compounds C5 and C13 for 8 weeks, as described in Example 9. A glucose tolerance test (Intraperitoneal glucose tolerance test, IPGTT) was performed following four weeks and eight weeks of the onset of treatment, as follows. Glucose (1 g/kg) was injected following 8 hours of fasting, and blood glucose was measured at baseline and at 30-, 60-, 90- and 120-minutes post glucose administration.
Heterozygote (wild type) and diabetic db/db mice were treated daily with the Vehicle, L-798106 and the compounds C17 and C20 for 8 weeks, essentially as described in Example 9. A glucose tolerance test (IPGTT) was performed essentially as described in Example 10.

[2] = glycemia evaluation in C57Bl/6 mice; conditions: for blood glucose concentration: IP 3 mg/kg, t0, 5 h, 24 h; for blood glucose concentrations: oral gavage 3 mg/kg/day for 3 days, t0, 5 h after each gavage, 24 h after last
Method: Male mice (n=8 per group) were assigned to the following test groups. A dosage of 3 mg/kg/mouse was administered daily for 3 consecutive days in 200 μl of:
Group A: saline and DMSO carrier (referred to throughout the drawings and examples describing the in vivo experiment as “Control-Saline”, “Vehicle”, “Saline” or “Control”), at the equivalent concentration administered the other test groups (2.5%). Group B: Compound 1b (C5) at 3 mg/Kg: (total of 9 mg/Kg). Group C: Compound 1a (C13) at 3 mg/Kg: (total of 9 mg/Kg). Group D: L-798106 at 3 mg/Kg: (total of 9 mg/Kg).
A. For glycemia evaluation, blood glucose was measured from the vein tail at the following time points (t(h)—time in hours): t=0—before gavage; t=5 h—following each gavage on days 1, 2 and 3 (5G1, 5G2 and 5G3, respectively); and t=24 h—after the last gavage (24G3).
A. Glycemia evaluation: Glucose concentration was measured in blood obtained from the vein tail of C57Bl/6 mice (n=12/group). Results are represented in FIGS. 13A-13D, in which, t(h) represents time in hours as follows: before injection (t0), at time 5 h (t5) and 24 h (t24) after injection of 200 μl saline/DMSO (FIG. 13A); of 3 mg/kg of C5 (FIG. 13B); C13 (FIG. 13C); or L-798106 (FIG. 13D), by using Accu-Chek performa glucometer.

[3] = blood insulin concentrations by serum C-peptide ELISA; conditions: 8 weeks oral treatment; vs vehicle-treated diabetic mice
Method: At the end of the 8 week-long period of treatment as described in Example 9, mice were sacrificed and blood samples were collected, and analyzed for different parameters as detailed below.
Blood insulin concentrations.
Blood insulin concentrations. Following 8 weeks of treatment, blood samples were collected and the levels of insulin in the collected sera were assessed essentially as described in Example 12. The results are presented in FIG. 28, in which the different test groups as presented in FIG. 28 are represented as described in Example 14 and “ns” indicates non-significant differences. The numbers of tested mice are as follows: vehicle (n=10), L-798106 (n=10), C17 (n=5), C20 (n=5).

[4] = blood insulin levels in C57Bl/6 mice (ELISA)
Method: B. For measurements of blood insulin levels, insulin was measured in blood obtained from the vein tail of C57Bl/6 mice (n=8/group) 24 h (t24) after the third gavage with vehicle (Control-Saline); 3 mg/kg/day Compound C5; Compound C13 or the EP3 antagonist L-798106 (total 9 mg/kg) using ELISA mouse insulin kit (Mercodia). Five samples randomly chosen from each group were measured.
B. Blood insulin levels: Insulin was measured in sera obtained from mice injected with either Saline/DMSO (control), Compound 5 (C5); Compound C13 (C13) or L-798106, using ELISA mouse insulin kit according to the manufacturer's instructions (Mercodia). Five samples randomly chosen from each group were measured. […] Similarly, to normal blood glucose, the mice keep their blood insulin concentrations within the normal range.

[5] = kidney function parameters in sera of C57Bl/6 mice
Method: Blood was collected by cardiac puncture, and 50 μl were collected in EDTA containing tubes for cell blood count (CBC). Further, 200-300 μl of blood was centrifuged and serum was collected for biochemical analysis.
D. Effects of orally administered compounds on kidney function parameters: Creatinine and Urea levels were measured in the sera obtained from mice 24 h after the third gavage with saline/DMSO (Control Saline); 3 mg/kg/day Compound C5; Compound C13 or the EP3 antagonist L-798106. […] 12 B for Urea.
D. Kidney function parameters: Creatinine (FIG. 15A) and Urea (FIG. 15B) were measured in sera obtained from mice, 24 h after injection of either Saline/DMSO (Control Saline), Compound C5 or L-798106.

[6] = test system: db/db mice; experiment: Insulin Tolerance Test (ITT); conditions: 8 weeks oral treatment; for glucose levels after insulin injection (insulin sensitivity), db/db mice: 0.75 U/kg insulin, all time points, vs vehicle
Method: An Insulin Tolerance Test (ITT) was conducted to determine the effect of the test compounds on insulin resistance, following oral administration of Vehicle or the tested compounds as described in Example 9. To this end, the different treated groups were further subjected to a subsequent 5-hour fast and then injected with 0.75 U/kg insulin. Blood glucose was measured at the time of insulin injection (baseline level) and at the indicated time intervals thereafter. Blood glucose levels and AUC of the wild-type mice are presented in FIGS. 19A-19B respectively, and blood glucose levels and AUC of the db/db mice are presented in FIGS. 19C-19D respectively. The different test groups as presented in FIGS. 19A-19D are represented as described in Example 9.
To determine the effect of the C17 and C20 compounds on insulin resistance, an ITT was conducted essentially as described in Example 11. Blood glucose levels and AUC of the wild-type mice are presented in FIGS. 27A-27B respectively (n=5-15), and blood glucose levels and AUC of the db/db mice are presented in FIGS. 27C-27D respectively (n=5-10). The different test groups as presented in FIGS. 27A-27D are represented as described in Example 14.

[7] = 8 weeks oral 2.5 mg/kg/day, glucose 1 g/kg, all time points, vs vehicle
[8] = oral 3 mg/kg/day (total 9 mg/kg), 24 h after third gavage
[9] = oral 3 mg/kg/day, 24 h after third gavage

Compound | hyperglycemia in IPGTT, db/db mice [1, 7] | hyperglycemia in IPGTT, db/db mice ([1]; four weeks of treatment) | blood glucose concentration [2] | blood glucose concentrations [2] | blood insulin levels (serum C-peptide) in diabetic mice [3] | blood insulin levels ([4]; IP single dose 3 mg/kg) | blood insulin levels [4, 8] | Creatinine ([5]; IP, 24 h after injection) | Urea ([5]; IP, 24 h after injection) | Creatinine [5, 9] | Urea [5, 9] | glucose levels after insulin injection (insulin sensitivity), db/db mice [6] | hyperglycemia in IPGTT, db/db mice ([1]; 8 weeks oral 2.5 mg/kg/day, glucose 1 g/kg, all time points, vs vehicle, 2.5 mg/kg/day) | baseline glucose levels in ITT ([6]; 5-hour fast)
CC[C@H](C)c1ccc(S(=O)(=O)Nc2ccccc2C(=O)N2C[C@@H](C)O[C@@H](C)C2)cc1 [Compound C5, 4-((S)-sec-butyl)-N-(2-((2S,6R)-2,6-dimethylmorpholine-4-carbonyl)phenyl)benzenesulfonamide] | significantly alleviated hyperglycemia | reduction of hyperglycemia could already be seen | no differences were observed | no significant alterations | the differences did not reach statistical significance | no statistically significant differences | no statistically significant differences | no statistically significant differences | no statistically significant differences | No statistically significant differences | No statistically significant differences | Improve Insulin Sensitivity |  | 
CC[C@@H]1CC[C@H](C)N1C(=O)c1cccc(NS(=O)(=O)c2ccc(C)c(F)c2)c1 [Compound C13, N-(3-((2R,5S)-2-ethyl-5-methylpyrrolidine-1-carbonyl)phenyl)-3-fluoro-4-methylbenzenesulfonamide] | significantly alleviated hyperglycemia | reduction of hyperglycemia could already be seen | no differences were observed | no significant alterations | the differences did not reach statistical significance | no statistically significant differences | no statistically significant differences | p-value >0.05 | p-value >0.05 | No statistically significant differences | No statistically significant differences | Improve Insulin Sensitivity |  | 
COc1ccc(Br)cc1S(=O)(=O)NC(=O)/C=C/c1ccccc1Cc1ccc2ccccc2c1 [Compound L-798106, (2E)-N-[(5-bromo-2-methoxyphenyl)sulfonyl]-3-[2-(2-naphthalenylmethyl)phenyl]-2-propenamide, reference compound] |  | reduction of hyperglycemia could already be seen | no differences were observed | no significant alterations | the differences did not reach statistical significance | no statistically significant differences | no statistically significant differences | no statistically significant differences | no statistically significant differences | No statistically significant differences | No statistically significant differences | significant decrease in glucose levels | significantly alleviated hyperglycemia; also recorded: appeared to be statistically more significant | reduced baseline glucose levels
